# From paper PMC10948889, “Differential scanning fluorimetry to assess PFAS binding to bovine serum albumin protein” (Scientific Reports, 2024)
# Like-named read-outs stand apart in the source and are kept apart here.
# Key:
# [1] = target: T1, bovine serum albumin (BSA) (Bos taurus, UniProt P02769); experiment: Label-free differential scanning fluorimetry, equilibrium-based binding model near BSA melting temperature; conditions: for Ka (association constant): 61 °C, 10 μM BSA in pH 7.4 PBS, fit to Eqs. (1) and (2), standard error in parentheses
# T1 construct: purchased Sigma-Aldrich (St. Louis, MO)
# Experimental: (§1) Bovine serum albumin (lyophilized powder, 99% fatty acid free) was obtained from Sigma-Aldrich (St. Louis, MO). A BSA concentration of 10 μM in pH 7.4 phosphate buffered saline (PBS) was used in each experiment. The solution of BSA was kept at 4 °C prior to use.
# Experiments were conducted using a Tycho NT.6 differential scanning fluorimeter (NanoTemper, Munich, Germany). […] Solutions were prepared a day in advance of the experiment and stored at 4 °C. Immediately prior to analysis, each sample was loaded into a 1 mm diameter glass capillary and placed in the instrument. […] Fluorescence intensity was measured at 0.1 °C intervals at emission wavelengths of 330 and 350 nm. The ratio of the intensity at these wavelengths, I350/I330, was used to account for blue shifts in the emission peak wavelengths with increasing temperature. The minimum value of the first derivative of the I350/I330 curve with respect to temperature, denoting the midpoint of the melting transition where the fraction of folded to unfolded protein is 1, was taken as the melting temperature Tm. Each experiment was performed in triplicate.
# As described by Eftink and Ghiron[44], baseline subtraction of the raw fluorescence intensity data collected at 350 nm was performed at both high and low temperatures. The plots were then normalized by dividing by the maximum intensity value.
# The term fU is the fraction of unfolded protein based on the concentration of unfolded protein, [U], divided by the total protein, [P]t, which is the sum of [U], folded protein [F], and folded protein with bound ligand [FL]. [L] is the total free ligand by correcting the total ligand concentration, [L]t, which is a main benefit of this model. KU represents the equilibrium between folded and unfolded protein, and Kd is the ligand dissociation constant from the bound to unbound states.3 Kd=Ka-1=F[L]/[FL]
# [2] = parameters: method as in PMID 29185060; conditions: octanol/water, EPA CompTox Chemicals Dashboard; cited from earlier work
# [3] = target: T1, bovine serum albumin (BSA); experiment: Tryptophan fluorescence quenching from DSF, Hill adsorption model; type: binding; conditions: 35 °C to 50 °C
# Experimental: as §1
# (§2) Experiments were conducted using a Tycho NT.6 differential scanning fluorimeter (NanoTemper, Munich, Germany). PFAS was added to 2 mL of the stock BSA solution to obtain the PFAS:BSA or FA:BSA ratios of 0:1, 0.5:1, 1:1, 2:1, 3:1, and 4:1. Solutions were prepared a day in advance of the experiment and stored at 4 °C. Immediately prior to analysis, each sample was loaded into a 1 mm diameter glass capillary and placed in the instrument. Thermal scans were conducted from 35 to 95 °C at a scan rate of 0.5 °C s^−1 with a 285 nm excitation wavelength. Fluorescence intensity was measured at 0.1 °C intervals at emission wavelengths of 330 and 350 nm. The ratio of the intensity at these wavelengths, I350/I330, was used to account for blue shifts in the emission peak wavelengths with increasing temperature. The minimum value of the first derivative of the I350/I330 curve with respect to temperature, denoting the midpoint of the melting transition where the fraction of folded to unfolded protein is 1, was taken as the melting temperature Tm. Each experiment was performed in triplicate. The same procedure was used for the control ligand warfarin.
# The Hill model has been used to correct for the presence of a fluorescent protein–ligand complex and binding cooperativity[21],[34].4 I0-I/I0-Ires=KHillQ^nHill/1+KHillQ^nHill
# I0 and I are the fluorescence intensity of BSA in the absence and presence of the ligand and Ires accounts for residual fluorescence at infinite quencher concentration. KHill and nHill are the Hill binding constant and the cooperativity constant, respectively, and [Q] is the concentration of added quencher (PFAS or FA).
# [4] = target: T1, bovine serum albumin (BSA); experiment: Label-free differential scanning fluorimetry, BSA melting temperature shift (protein stabilization); type: binding; conditions: for Stabilizing effect on BSA folded structure (ΔTm): ligand:BSA ratios 0:1 to 4:1, 10 μM BSA, pH 7.4 PBS
# Experimental: as §1
# as §2, with “Thermal scans were conducted from 35 to 95 °C at a scan rate of 0.5 °C s^−1 with a 285 nm excitation wavelength.” left out, “triplicate.” for “triplicate. The same procedure was used for the control ligand warfarin.”
# [5] = parameters: method as in PMID 29185060; conditions: octanol/water; experimental average (in parentheses), EPA CompTox Chemicals Dashboard; cited from earlier work
# cattle = conditions: varies by sex; cited from earlier work
# [6] = ligand:BSA ratio up to 4:1, native protein Tm 62 °C
# T1 sequence (P02769 25-607): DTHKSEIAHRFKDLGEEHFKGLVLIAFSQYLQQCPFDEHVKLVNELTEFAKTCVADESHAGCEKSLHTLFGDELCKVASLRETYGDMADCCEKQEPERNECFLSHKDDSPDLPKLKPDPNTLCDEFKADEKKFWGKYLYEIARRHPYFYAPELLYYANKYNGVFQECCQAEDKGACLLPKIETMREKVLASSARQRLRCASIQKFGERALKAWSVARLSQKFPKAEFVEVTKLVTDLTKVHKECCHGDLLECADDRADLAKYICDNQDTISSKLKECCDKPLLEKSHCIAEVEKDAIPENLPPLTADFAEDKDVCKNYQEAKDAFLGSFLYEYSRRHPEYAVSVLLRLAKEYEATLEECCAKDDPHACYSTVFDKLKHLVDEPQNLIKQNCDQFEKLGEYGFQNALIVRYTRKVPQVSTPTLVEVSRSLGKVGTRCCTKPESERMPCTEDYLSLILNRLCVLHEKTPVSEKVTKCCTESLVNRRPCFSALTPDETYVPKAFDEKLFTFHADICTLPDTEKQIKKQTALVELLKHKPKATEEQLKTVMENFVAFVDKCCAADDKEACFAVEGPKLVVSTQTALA
Structure (SMILES),Kd [1] [µM],Log Kow (predicted average) [2],Temperature dependence of KHill (Hill association constant) [3],Stabilizing effect on BSA folded structure (ΔTm) [4],Log Kow (experimental average) [5],Ka (association constant) [1],"Tm of BSA with ligand [4, 6] [°C]",Tm of BSA with ligand [4] [°C],half-life (cattle) [days]
"CCCCCCCCCC(=O)O [DA, Decanoic acid]",27.6,4.03,,,,,,,
"O=C(O)C(F)(OC(F)(F)C(F)(F)C(F)(F)F)C(F)(F)F (stereo not drawn) [GenX, Perfluoro-2-methyl-3-oxahexanoic acid]",50.5,5.41,does not change with temperature,little stabilization,,,,,
"CCCCCCCCC(=O)O [NA, Nonanoic acid]",0.341,3.41,,,3.42,,,,
"CCCCCCCC(=O)O [OA, Octanoic acid]",,2.99,,,3.05,,,,
"O=S(=O)([O-])C(F)(F)C(F)(F)C(F)(F)C(F)(F)F.[Na+] [PFBS, Sodium perfluorobutylsulfonate]",,2.20,,little stabilization,,2.08 (0.61) 10^4 M^−1,,,
"O=C(O)C(F)(F)C(F)(F)C(F)(F)C(F)(F)C(F)(F)C(F)(F)C(F)(F)C(F)(F)C(F)(F)F [PFDA, Perfluorodecanoic acid]",,7.32,increasing with temperature,no measurable protein stabilization,4.15,0.33 (0.26) 10^4 M^−1,,,
"O=S(=O)(O)C(F)(F)C(F)(F)C(F)(F)C(F)(F)C(F)(F)C(F)(F)F [PFHxS, Sodium perfluorohexanesulfonate]",10.6,2.91,,greatest stabilizing effect,,,69 to 71,,
"O=C(O)C(F)(F)C(F)(F)C(F)(F)C(F)(F)C(F)(F)C(F)(F)C(F)(F)C(F)(F)F [PFNA, Perfluorononanoic acid]",,6.51,increasing with temperature,greatest stabilizing effect,3.54,,,69 to 71,
"O=C(O)C(F)(F)C(F)(F)C(F)(F)C(F)(F)C(F)(F)C(F)(F)C(F)(F)F [PFOA, Perfluorooctanoic acid]",41,5.68,increasing with temperature,,3.10,,69 to 71,,
"O=S(=O)(O)C(F)(F)C(F)(F)C(F)(F)C(F)(F)C(F)(F)C(F)(F)C(F)(F)C(F)(F)F [PFOS, Sodium perfluorooctanesulfonate]",,4.94,,minimal shift Tm,,,,,39 to 120
